The values that follow come from PubChem BioAssay AID1288 (Columbia University Molecular Screening Center, 2008).

Assay [1] can be described thus: E-selectin induction blockers, endothelial cells – imaging, retest plus dose response, cell count, confirmation (AID 1288).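 As to inhibition: 0% = stimulated vehicle wells and 100% = unstimulated vehicle wells.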 As to conditions: human endothelial cells, TNFa-induced E-selectin, imaging; for cell count: cell count toxicity, at 10 µM, stronger effect = lower value; for inhibition: at 2 µM, stronger effect = higher value.
The subject of assay [2] is human endothelial cells, TNFa-induced E-selectin, imaging. Described as above.

Each structure is given as a SMILES string. Activity calls are given as the source filed them. No rule for the calls is given here. Where only a bound is given, the exact number is not on record here.

For the compound `O=C(/C=C/c1cccc([N+](=O)[O-])c1)n1cnc2ccccc21`, the cell count in assay [1] was 19.1%. In addition, the IC50 in assay [2] was 3.81 µM.
In the same order, the values of `CN(C)C(=O)Oc1c(Cl)cc(Cl)c2cccnc12` are 20.8% and 2.55 µM.
With `CCCn1c(=NC(=O)c2ccco2)c(C(=O)OCC)cc2c(=O)n3ccccc3nc21`, the cell count in assay [1] was 64.4%. In addition, the IC50 in assay [2] was 4.41 µM.
In the same order, the values of `O=C(NCCC1=CCCCC1)c1coc(=O)c(Br)c1` are 1.14% and 2.77 µM.
Taken in the same sequence, the figures for `O=C(OCn1ncc(Cl)c(Cl)c1=O)c1ccc(F)cc1` were 107% and > 10 µM (inactive).
Taken in the same sequence, the figures for `COc1ccc(NC(=O)/C(Cl)=C(/Cl)S(=O)(=O)Cc2ccc(C)cc2)cn1` were 89.6% and > 10 µM (inactive).
Take `O=S1(=O)C=C(Sc2nnc(-c3ccccc3)o2)c2ccccc21`: the cell count in assay [1] stood at 72.7%. Also, the IC50 in assay [2] is > 10 µM (inactive).
Taken in the same sequence, the figures for `CC(C)(C)C(=O)/C(=C\c1ccc([N+](=O)[O-])cc1)n1cncn1` were 94.9% and > 10 µM (inactive).
Taken in the same sequence, the figures for `CN(CCC#N)C(=O)COC(=O)c1ccccc1C(=O)c1ccc(Cl)c([N+](=O)[O-])c1` were 15.6% and 1.37 µM.
Taken in the same sequence, the figures for `Cc1ccc(Cl)c(NC(=O)COC(=O)c2ccccc2C(=O)c2ccc(Cl)c([N+](=O)[O-])c2)c1Cl` were 96.8% and > 10 µM (inactive).
Turning to `O=C(Nc1ccc2nc(SCc3ccc(Cl)cc3)sc2c1)c1ccccc1C(=O)N1CCOCC1`, the cell count in assay [1] came out at 40%. The IC50 in assay [2] was 2.83 µM.
Taken in the same sequence, the figures for `CCN1C/C(=C/c2ccc(OC)c(O)c2)C(=O)/C(=C/c2ccc(OC)c(O)c2)C1` were 15.1% and 3.01 µM.
Taken in the same sequence, the figures for `O=C(OCn1ncc(Cl)c(Cl)c1=O)c1cccc(C(F)(F)F)c1` were 102% and > 10 µM (inactive).
Taken in the same sequence, the figures for `CCN(CC)c1ccc2c(Cl)c(Br)c(=O)oc2c1` were 11.5% and 2.16 µM.
Turning to `CN1C2CCC1/C(=C/c1ccccn1)C(=O)/C2=C\c1ccccn1`, in assay [1], the cell count came out at 51.6%. The IC50 in assay [2] is 2.8 µM.
In the same order, the values of `Cc1ccc(C(=O)OCn2ncc(Cl)c(Cl)c2=O)cc1` are 101% and > 10 µM (inactive).
In the same order, the values of `COc1cccc(-n2nc(C#N)c(Cl)cc2=O)c1` are 104% and > 10 µM (inactive).
In the same order, the values of `CC(C)(C)C(=O)/C(=C/c1cccc([N+](=O)[O-])c1)n1cncn1` are 101% and > 10 µM (inactive).
`CCOC(=O)CS(=O)(=O)c1nc(-c2ccc(F)cc2)cc(C(F)(F)F)n1`: in assay [1], the cell count stood at 98.3%. In assay [2], the IC50 is > 10 µM (inactive).
In the same order, the values of `O=C(OCn1ncc(Cl)c(Cl)c1=O)c1ccccc1Cl` are 45.3% and > 10 µM (inactive).
On to `CN(C)c1nc(C=C(C#N)C#N)c(Cl)n1-c1ccc(F)cc1`, for which the cell count in assay [1] came to 46.6%. In addition, the IC50 in assay [2] was 1.74 µM.
Taken in the same sequence, the figures for `O=C(OCn1ncc(Br)c(Br)c1=O)c1ccc(F)cc1` were 53.9% and > 10 µM (inactive).
In the same order, the values of `Cc1ccccc1NC1=C/C(=N\S(=O)(=O)c2cccs2)c2ccccc2C1=O` are 107% and > 10 µM (inactive).
Regarding `Cn1c(SC2=CS(=O)(=O)c3ccccc32)nc2ccccc21`, the cell count in assay [1] came to 13.4%. Besides, in assay [2], the IC50 was 2.53 µM.
In the same order, the values of `COc1ccc(NC(=O)/C(Cl)=C(/Cl)S(=O)Cc2ccc(Cl)cc2)cn1` (stereo not drawn) are 0.27% and 1.66 µM.
Taken in the same sequence, the figures for `O=S(=O)(/C(=C/c1ccc(C(F)(F)F)cc1)c1nc2ccccc2[nH]1)c1ccccc1` were 104% and > 10 µM (inactive).
In the same order, the values of `Cc1ccc2nc(-c3ccc(NC(=O)CCN4C(=O)c5ccccc5C4=O)cc3)sc2c1` are 107% and > 10 µM (inactive).
Regarding `COc1ccc(Oc2cc(NC(=O)c3nn(C)cc3[N+](=O)[O-])cc([N+](=O)[O-])c2)cc1`, the cell count in assay [1] was found to be 23.9%. In assay [2], the IC50 is 3.5 µM.
Taken in the same sequence, the figures for `CC1C/C(=C/c2ccncc2)C(=O)/C(=C/c2ccncc2)C1` (stereo not drawn) were 84.9% and 4.92 µM.
In the same order, the values of `C#CC(=O)N(c1cc(OC)ccc1OC)C(C(=O)NC1CCCC1)c1cccs1` (stereo not drawn) are 33.9% and 9.61 µM.
In the same order, the values of `N#CC(C#N)=C1C=CC=CN1/C(=C\c1ccco1)C(=O)c1ccc(-c2ccccc2)cc1` are 2.93% and 2.85 µM.
For the compound `COc1ccc(CS(=O)/C(Cl)=C(/Cl)C(=O)Nc2ccc(OC)nc2)cc1` (stereo not drawn), the cell count in assay [1] is 10.3%. Also, the IC50 in assay [2] was 2.02 µM.
Taken in the same sequence, the figures for `CC(C)Oc1ccc(/C=N/NC(=O)C(CSCc2ccccc2)NC(=O)c2ccc([N+](=O)[O-])cc2)cc1` (stereo not drawn) were 71.8% and > 10 µM (inactive).
In the same order, the values of `COCCN(CC(=O)NC1CCCCC1)C(=O)/C=C/C(=O)c1ccc(OC)cc1O` are 95% and > 10 µM (inactive).
Taken in the same sequence, the figures for `CN1C(=O)/C(=C/c2cccn2-c2ccc3ccccc3c2)C(=O)NC1=S` were 106% and 6.93 µM.
Take `CC(C)(C)C1=CC(=O)C(=O)C(C(C)(C)C)=C1`: in assay [1], the cell count is 95%. Further, the IC50 in assay [2] was > 10 µM (inactive).
Taken in the same sequence, the figures for `COc1ccc(NC(=O)c2cc3c(Cl)nc4ccccc4c3s2)c(OC)c1` were 89.6% and > 10 µM (inactive).
In the same order, the values of `COC(=O)/C=C/S(=O)(=O)c1ccc(NC(C)=O)cc1` are 106% and > 10 µM (inactive).
Taken in the same sequence, the figures for `CCc1ccc(N2C(=O)NC(=O)/C(=C/c3cccn3CCOc3ccc(C(C)CC)cc3)C2=O)cc1` (stereo not drawn) were 17.9% and 1.37 µM.
On to `Cc1cc2cc(C=C(C#N)C#N)c(Cl)nc2cc1C`, for which the cell count in assay [1] turned out to be 4.88%. Moreover, the IC50 in assay [2] was 2.39 µM.
For the compound `Oc1ccc(N2CCN(c3ncnc4sc(-c5ccccc5)cc34)CC2)cc1`, in assay [1], the cell count stood at 25.6%. For the same compound, the IC50 in assay [2] is 1.88 µM.
With `COc1ccc(C(=O)/C=C/c2ccc(F)cc2)c(OC(=O)c2ccc([N+](=O)[O-])cc2)c1`, the inhibition in assay [1] is 5.11% (inactive).
The same measure, in the same setting: the result for `COc1ccc(C(=O)C(CO)Oc2ccccc2OC)cc1OC` (stereo not drawn) reads 1.41% (inactive); that for `CCN(C(=O)COC(=O)c1cc(C)n(-c2ccc(F)cc2)c1C)C1CCS(=O)(=O)C1` (stereo not drawn), 2.1% (inactive).
Same read-out and setting: the result for `Oc1ccccc1Nc1nc(NCC2CCCO2)c2ccccc2n1` (stereo not drawn) reads 5.39% (inactive); that for `Clc1ccc(-c2nnc(-c3ccco3)o2)cc1`, 6.81% (inactive); that for `O=C(COC(=O)CCc1ccc(S(=O)(=O)N2CCOCC2)cc1)NC1CCCC1`, 2.85% (inactive).
On the same count and under the same terms, the result for `Cc1ccc(SCCC(=O)Nc2ccccc2C(=O)NC(C)C)cc1` reads 12.3% (inactive); that for `CCOC(=O)/C(C#N)=C1/C=Cc2ccccc2N1CC`, 10.7% (inactive).
On to `Cc1cc(NC(=O)CCc2ccc(S(=O)(=O)N3CCOCC3)cc2)n(-c2ccccc2)n1`, for which the inhibition in assay [1] was -9.97% (inactive).
The same measure, in the same setting: the result for `O=S(=O)(/N=C(/Nc1ccccc1)c1ccccc1)c1cccs1` reads 5.98% (inactive); that for `CCOC(=O)c1cc(-c2ccccc2)sc1NC(=S)Nc1cccc(C)n1`, -0.25% (inactive).
Consider `Cn1c(=O)c2c(nc(SCC(=O)NC34CC5CC(CC(C5)C3)C4)n2C)n(C)c1=O`, for which the inhibition in assay [1] is 16.3% (inactive).
In the case of `COc1ccc(-c2cc(C)nc(SCc3cccc(C(=O)O)c3)n2)cc1`, the inhibition in assay [1] was 16.2% (inactive).
The same measure, in the same setting: the result for `Cc1ccc(C2CC(=O)N(c3ccc(F)cc3)C3=C2C(=O)CCC3)cc1` (stereo not drawn) reads 4.74% (inactive); that for `CCOC(=O)N1CCC(N(CCOC)C(=O)Nc2ccc(Cl)cc2)CC1`, 2.12% (inactive).
On the same count and under the same terms, the result for `C=CCn1c(SCC(=O)NCc2ccccc2)nnc1-c1ccccc1O` reads -0.67% (inactive).
`O=C(CCn1c2c(c3ccccc31)CCCC2)NNC(=O)c1ccccc1[N+](=O)[O-]`: the inhibition in assay [1] is 2% (inactive).
The same measure, in the same setting: the result for `COc1ccc(C)cc1S(=O)(=O)N(C)CC(=O)N1CCCCC1` reads -0.62% (inactive); that for `COc1ccc(-n2nc([N+](=O)[O-])c(=NCCc3ccc(Cl)cc3)n2O)cc1`, 6.09% (inactive).
Same read-out and setting: the result for `CCOC(=O)c1ccc(NC(=S)NCC(O)c2ccccc2)cc1` (stereo not drawn) reads 4.17% (inactive); that for `COc1ccc(C2(CNC(=O)c3cc([N+](=O)[O-])cc([N+](=O)[O-])c3)CCCC2)cc1OC`, 4.01% (inactive).
On the same count and under the same terms, the result for `CN(C)c1ccc(NC(=S)NC(=O)/C=C/c2ccc(Cl)cc2)cc1` reads 2.61% (inactive); that for `Cc1ccc(/C=C/C(=O)C2C(=O)c3ccccc3C2=O)cc1`, 23.7% (inactive); that for `CCn1cc(C(=O)NCc2ccco2)c(=O)c2cc(S(=O)(=O)N3CCc4ccccc4C3)ccc21`, 41.9% (inactive).
As to `CCN(CC)Cc1cc(C(C)=O)ccc1O`, the inhibition in assay [1] was 3.73% (inactive).
Same read-out and setting: the result for `Oc1ccc(-c2csc(-c3ccccc3)n2)cc1O` reads 35.9% (inactive); that for `Cc1nc2c(sc3nc4c(cc32)COC(C)(C)C4)c(=O)o1`, 6.35% (inactive).
For `CCn1cc(C(=O)O)c(=O)c2cc(F)c(N3CCN(C(=S)NC(=O)c4ccc(Br)cc4)CC3)cc21`, in assay [1], the inhibition is 7.45% (inactive).
On the same count and under the same terms, the result for `CCOC(=O)c1ccc(-n2ccnc2)c(NC(=O)c2ccc(Cl)cc2)c1` reads 11.1% (inactive); that for `CN(C)c1ccc(NC(=O)COC(=O)Cn2nnc3ccccc32)cc1`, 0.53% (inactive).
Still for that read-out and setting: the result for `O=S(=O)(NCC(c1ccco1)N1CCN(c2ccccc2)CC1)c1ccc(F)cc1` (stereo not drawn) reads 6.17% (inactive).

Broadly, the IC50 is the concentration needed to halve the response being measured. For orientation: inhibition means the drop in the measured response relative to a control, in per cent.
